According to article PMC10300352, “Discovery of novel benzylquinazoline molecules as p97/VCP inhibitors” (Frontiers in Pharmacology, 2023):
Like-named read-outs stand apart in the source and are kept apart here.

Experiments:
[1] = Myelosuppressive toxicity evaluation, peripheral blood counts of s180 mice; format: in vivo, ICR mice; details: day 10, 90 μmol/kg/day, vs vehicle
Procedure: To determine the effects on myelosuppression, WBC, RBC, PLT count, ALC, and ANC were performed in peripheral blood samples of s180 mice (Figure 7F) on day 10.

p97 [2] = details: cited from earlier work
[3] = tested on: SQSTM1/p62, ATF4, and NF-κB in HCT116 cells; test: Western blot of p97 downstream biomarkers; details: DBeQ 10 μM, CB-5083 0.5 μM, 8 h treatment
Procedure: HCT116 cells were plated into 6-well plates (2 × 10^6 cells/well) when they were 70%–80% confluent. DMSO (0.5% v/v) or compounds were added, and cells were harvested after 8 h of treatment and washed three times with phosphate-buffered saline (PBS, pH 7.4). […] The secondary antibodies used were goat anti-mouse IgG (HRP, Abcam/ab6789).

A549 = test: Cell proliferation assay (MTT/CCK-8), A549; details: Homo sapiens, A549, 48 h, read-out: IC50 A549
Procedure: (§1) Cells were treated with the tested compounds in a variety of concentrations and incubated at 37°C for 48 h before measurement. IC50 values were calculated using the percentage of growth of treated cells versus the blank control (Table 2).
(§2) The medium was supplemented with 10% fetal bovine serum (FBS) (Hyclone, SH30084.03). Cells were cultured in an incubator containing 5% CO2 at 37°C.
(§3) Cells were seeded at 3,000–4,000 cells per well in a 96-well plate to test the antiproliferative activity of target compounds. Cells were treated with the compounds or positive controls 6 h after seeding (twofold dilution, eight concentrations). […] The results were analyzed using GraphPad Prism 7.0.

K562 = test: Cell proliferation assay (MTT/CCK-8), K562; details: Homo sapiens, K562, 48 h, read-out: IC50 K562
Procedure: as §1, §2, §3

s180 = test: Cell proliferation assay (MTT/CCK-8), s180; details: Mus musculus, S-180, 48 h, read-out: IC50 s180
Procedure: (§4) Cells were treated with the tested compounds in a variety of concentrations and incubated at 37°C for 48 h before measurement. […] Furthermore, we evaluated all compounds’ potency toward the normal human cell line NCM460.
as §2, §3

HepG2 = test: Cell proliferation assay (MTT/CCK-8), HepG2; details: Homo sapiens, HepG2, 48 h, read-out: IC50 HepG2
Procedure: as §1, §2, §3

HCT116 = test: Cell proliferation assay (MTT/CCK-8), HCT116; details: Homo sapiens, HCT-116, 48 h, read-out: IC50 HCT116
Procedure: as §1, §2, §3

RPMI-8226 = test: Cell proliferation assay (MTT/CCK-8), RPMI-8226; details: Homo sapiens, RPMI-8226, 48 h, read-out: IC50 RPMI-8226
Procedure: as §1, §2, §3

HCT116 cells [4] = test: Apoptosis assay, annexin V/PI staining and flow cytometry; details: 10 μM, 12 h; control cells 3.5%
Procedure: Apoptosis was measured by flow cytometry after staining with annexin V and propidium iodide (PI) in HCT116 (Figure 5).
The assay was performed as recommended by the manufacturer. Briefly, the HCT116 cells were seeded in 6-well plates (2 × 10^6 cells/well) and allowed to adhere for 4 hours. Then, each well was treated with DMSO (0.5% v/v) or compounds for 12 h. For the apoptosis experiment, at the end of treatment, the cells were washed twice with cold PBS and then harvested for staining with annexin V in binding buffer for 15 min in the dark at room temperature. The cells were washed in binding buffer and then incubated with propidium iodide. […] The samples were measured using flow cytometry (Beckman, cytoFLEX) within 4 h and analyzed using CytExpert (V 2.4.0.28).

NCM460 = test: Cell proliferation assay (MTT/CCK-8), normal colon mucosal epithelial cell line NCM460; details: Homo sapiens, NCM460, 48 h, read-out: IC50 NCM460
Procedure: as §4, §2, §3

HCT116 cells [5] = test: Cell cycle assay, PI staining and flow cytometry; format: cell-based, human; details: for effect on the cell cycle: HCT116, 12 h
p97 ATPase = p97 ATPase (Homo sapiens, UniProt P55072); test: p97 ATPase inhibition, ADP-Glo kinase assay; details: for IC50 of inactivation activities against p97: ADP-Glo, 20 nM p97, 20 μM ATP
Sequence of p97 ATPase (P55072 whole entry): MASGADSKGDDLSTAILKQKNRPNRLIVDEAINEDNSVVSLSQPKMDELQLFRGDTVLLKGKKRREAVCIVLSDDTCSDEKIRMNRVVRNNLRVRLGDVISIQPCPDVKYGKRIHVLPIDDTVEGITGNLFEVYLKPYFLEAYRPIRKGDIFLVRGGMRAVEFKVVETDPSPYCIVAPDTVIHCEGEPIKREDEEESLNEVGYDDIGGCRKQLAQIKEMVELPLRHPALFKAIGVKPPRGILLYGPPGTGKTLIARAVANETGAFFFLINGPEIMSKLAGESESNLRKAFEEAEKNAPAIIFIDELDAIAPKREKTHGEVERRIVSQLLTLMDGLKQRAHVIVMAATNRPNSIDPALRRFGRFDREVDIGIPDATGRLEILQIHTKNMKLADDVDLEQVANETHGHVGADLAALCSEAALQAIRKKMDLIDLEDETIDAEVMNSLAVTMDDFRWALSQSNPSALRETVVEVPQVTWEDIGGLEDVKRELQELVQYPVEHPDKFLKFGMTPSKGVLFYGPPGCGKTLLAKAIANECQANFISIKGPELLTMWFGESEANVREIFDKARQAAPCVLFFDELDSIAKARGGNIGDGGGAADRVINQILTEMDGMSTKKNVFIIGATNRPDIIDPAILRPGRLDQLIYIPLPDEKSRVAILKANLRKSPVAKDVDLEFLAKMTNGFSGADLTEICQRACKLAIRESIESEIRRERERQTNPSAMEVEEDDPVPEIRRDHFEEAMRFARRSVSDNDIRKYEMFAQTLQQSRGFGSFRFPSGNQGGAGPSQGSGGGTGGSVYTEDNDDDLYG
Procedure: As the major indicator of p97 inhibitors, the inactivation of p97 ATPase by the tested compounds was determined using an ADP-Glo kinase assay, in which the formation of ADP represented the activity of ATPase.
His‐tagged human VCP (hVCP) cDNA was amplified by PCR and cloned into PCR‐linearized pET15 b (Merck Millipore, Burlington, MA, United States) using a CloneEZ Kit (Genscript). The pET15 b‐hVCP plasmid was transformed into Escherichia coli BL21 (Rosetta; Novagen, Madison, WI, United States), and the transformed bacteria were pre-cultured in LB medium containing kanamycin and chloramphenicol overnight at 37°C. Protein expression was induced with 1 mmol/L isopropyl‐β‐D‐thiogalactopyranoside.
Protein concentrations were first normalized using a Pierce BCA protein assay kit (Thermo Fisher), and a standard series was prepared with the BSA provided (2 mg/ml–25 μg/μL). Twenty-five microliters of each standard and unknown sample was added to a 96-well plate in triplicate, and 200 μL of working reagent was added to each well and prepared according to the manufacturer’s guidelines.
The protein solution was diluted to 20 nM of p97 with 20 μM ATP in triplicate in 5 μL of 1× Kinase Reaction Buffer A (40 mM Tris, pH 7.5, 20 mM MgCl2, 0.1 mg/mL BSA) and incubated at 37°C for 30 min. After incubation, the solutions were equilibrated to RT for 5 min, and 5 μL of ADP-Glo reagent was added to stop the reaction and consume the remaining ATP. The solution was incubated for 40 min at RT. Ten microliters of kinase detection reagent was added and incubated for 30 min. The sample’s luminescence was recorded using a multimode microplate reader (SMP7, MD). Each sample was averaged across the three measurements and plotted as mean ± standard deviation.

His6-p97 = His6-p97 (Homo sapiens, UniProt P55072); test: Microscale thermophoresis (MST) binding assay with fluorescent-labeled His6-p97
Sequence of His6-p97 (P55072 whole entry): as above
Procedure: Fluorescent labeling of His6-p97 was carried out using the RED-tris-NTA labeling kit (Catalog No. MO-L011, NanoTemper Technologies) on a NanoTemper Monolith NT.115 following the manufacturer’s protocol. In brief, His6-p97 protein was diluted into 200 nM with PBST (0.05% Tween 20 in PBS), and red-NHS dye was diluted into 100 nM with PBST. Then, His6-p97 and RED-tris-NTA dye were mixed in a 1:1 volumetric ratio and incubated at room temperature for 30 min. […] Then 10 μL of compounds were mixed at different concentrations with 10 μL of dye-labeled His6-p97. Subsequently, well-mixed solutions containing compounds and dye-labeled His6-p97 were loaded into capillaries (Catalog No. MO-K025, NanoTemper Technologies), which were placed in slots 1–16 on the capillary rack. Then, MST experiments were carried out at an ambient temperature, and the instrument parameters were set to 20% LED power and medium MST power. The equilibrium dissociation constants were derived from the M.O. Affinity Analysis software using the K d model based on four independently titrated experiments per condition.

p97 [6] = test: In vivo p97 expression measurement by ELISA; details: day 10, oral 90 μmol/kg/day
[7] = literature values of DBeQ derivatives, Figure 2, read-out: IC50 (p97 inhibitors developed by several research groups)

| Kd (His6-p97) | Compound | IC50 (p97 [2]; [7]) | IC50 (A549) | IC50 (K562) | IC50 (s180) | IC50 (HepG2) | IC50 (HCT116) | IC50 (RPMI-8226) | proportion of apoptotic cells (HCT116 cells [4]) | IC50 (NCM460) | other results |
| --- | --- | --- | --- | --- | --- | --- | --- | --- | --- | --- | --- |
| – | Cc1cc2c(C(N)=O)cccc2n1-c1nc2c(c(NCc3ccccc3)n1)COCC2 [CB-5083, reference compound] | 0.011 µM | 0.77 ± 0.38 µM | 0.7 ± 0.42 µM | 0.24 ± 0.29 µM | 0.16 ± 0.03 µM | 0.47 ± 0.16 µM | 0.15 ± 0.02 µM | 20.42% | 0.078 ± 0.015 µM | ALC [1]: significantly lower; ANC [1]: significantly lower; WBC [1]: significantly lower; body weight change (oral 90 μmol/kg/day, 10 days): obvious weight loss effects; death of mice during the in vivo experiments (oral 90 μmol/kg/day, 10 days): death occurred on day 8; autophagosome formation in the cytoplasm [3]: induced accumulation; levels of the ER stress biomarker (ATF4) [3]: increased levels |
| 0.64 ± 0.26 µM | O=C(NNc1ncnc2ccccc12)c1cnccn1 [Compound 4, Nʹ-(Quinazolin-4-yl)pyrazine-2-carbohydrazide] | – | > 100 µM | 66.7 ± 9.97 µM | 1.04 ± 0.37 µM | > 100 µM | 3.48 ± 0.21 µM | 5.24 ± 0.45 µM | 8.31% | 49.8 ± 3.25 µM | effect on the cell cycle (HCT116 cells [5]): cell proportion in the S phase in the compound 4-treated group was notably higher than that in the vehicle group; IC50 (p97 ATPase): 0.108 µM |
| 0.4 ± 0.15 µM | Nc1nccnc1C(=O)NNc1ncnc2ccccc12 [Compound 5, 3-Amino-Nʹ-(quinazolin-4-yl)pyrazine-2-carbohydrazide] | – | 24.2 ± 5.39 µM | 1.79 ± 0.73 µM | 6.9 ± 2 µM | 4.53 ± 1.26 µM | 5.83 ± 1.03 µM | 0.75 ± 0.01 µM | 9.34% | 24.2 ± 1.05 µM | IC50 (p97 ATPase): 0.072 µM |
| – | COc1cccc2c(NNC(=O)c3cnccn3)ncnc12 [Compound 6, Nʹ-(8-Methoxyquinazolin-4-yl)pyrazine-2-carbohydrazide] | – | > 100 µM | > 100 µM | 1.72 ± 0.69 µM | > 100 µM | 2.94 ± 0.1 µM | 3.61 ± 0.27 µM | 20.68% | 36.2 ± 2.89 µM | ALC [1]: no significant changes; ANC [1]: no significant changes; PLT count [1]: no significant changes; RBC [1]: no significant changes; WBC [1]: no significant changes; death of mice during the in vivo experiments (mouse, in vivo, po): no mice died; body weight change (oral 90 μmol/kg/day, 10 days): No obvious loss of body weight |
| – | COc1cccc2c(NNC(=O)c3nccnc3N)ncnc12 [Compound 7, 3-Amino-Nʹ-(8-methoxyquinazolin-4-yl)pyrazine-2-carbohydrazide] | – | > 100 µM | > 100 µM | 32.4 ± 2.57 µM | > 100 µM | > 100 µM | 39.8 ± 0.95 µM | 8.94% | 27.3 ± 1.62 µM | effect on the cell cycle (HCT116 cells [5]): arrested the cells in both G0/G1 and S phases |
| 5 µM | O=C(O)/C=C/c1ccc(Nc2nc(NCc3cnccn3)c3ccccc3n2)cc1 [Compound 10a, (E)-3-(4-((4-((Pyrazin-2-ylmethyl)amino)quinazolin-2-yl)amino)phenyl)acrylic acid] | – | – | – | – | – | – | – | – | – | IC50 of inactivation activities against p97 (p97 ATPase): Inactive |
| > 10 µM | COc1cccc2c(NCc3cnccn3)nc(Nc3ccc(/C=C/C(=O)O)cc3)nc12 [Compound 10b, (E)-3-(4-((8-Methoxy-4-((pyrazin-2-ylmethyl)amino)quinazolin-2-yl)amino)phenyl)acrylic acid] | – | – | – | – | – | – | – | – | – | IC50 of inactivation activities against p97 (p97 ATPase): Inactive |
| > 10 µM | NC(=O)/C=C/c1ccc(Nc2nc(NCc3cnccn3)c3ccccc3n2)cc1 [Compound 11a, (E)-3-(4-((4-((Pyrazin-2-ylmethyl)amino)quinazolin-2-yl)amino)phenyl)acrylamide] | – | – | – | – | – | – | – | – | – | IC50 of inactivation activities against p97 (p97 ATPase): Inactive |
| > 10 µM | COc1cccc2c(NCc3cnccn3)nc(Nc3ccc(/C=C/C(N)=O)cc3)nc12 [Compound 11b, (E)-3-(4-((8-Methoxy-4-((pyrazin-2-ylmethyl)amino)quinazolin-2-yl)amino)phenyl)acrylamide] | – | – | – | – | – | – | – | – | – | IC50 of inactivation activities against p97 (p97 ATPase): Inactive |
| – | COc1cccc2c(NCc3ccccc3)nc(NCc3ccccc3)nc12 [Compound P2-B11] | 3.4 µM | – | – | – | – | – | – | – | – | – |
| – | COc1cccc2c(NCc3ccccc3)nc(-n3c(C)cc4c(NS(C)(=O)=O)cccc43)nc12 [ML-240] | 0.11 µM | – | – | – | – | – | – | – | – | – |
| – | c1ccc(CNc2nc(N3CCOc4ccccc43)nc3c2CCCC3)cc1 [ML-241] | 0.1 µM | – | – | – | – | – | – | – | – | – |
| – | Cc1cc2c(NS(C)(=O)=O)cccc2n1-c1nc2c(c(NCc3ccccc3)n1)COCC2 [compound 35] | 0.036 µM | – | – | – | – | – | – | – | – | – |

| Compound | Kd (His6-p97) | IC50 (p97 [2]; [7]) | IC50 (A549) | IC50 (K562) | IC50 (s180) | IC50 (HepG2) | IC50 (HCT116) | IC50 (RPMI-8226) | proportion of apoptotic cells (HCT116 cells [4]) | IC50 (NCM460) | other results |
| --- | --- | --- | --- | --- | --- | --- | --- | --- | --- | --- | --- |
| c1ccc(CNc2nc(NCc3ccccc3)c3ccccc3n2)cc1 [DBeQ] | 0.68 ± 0.059 µM | – | 11.6 ± 0.84 µM | 5.64 ± 1.08 µM | 2.69 ± 0.82 µM | 7.57 ± 1.2 µM | 4.78 ± 0.22 µM | 4.29 ± 2.46 µM | 19.65% | 6.44 ± 0.36 µM | G0/G1 phase fraction (HCT116 cells [5]; 12 h, same concentration as apoptosis measurement, vehicle 32.82%): 33.53%; percentage of cells in the S phase (HCT116 cells [5]; 12 h, vehicle 23.61%): 16.74%; percentage of cells in the G2/M phase (HCT116 cells [5]; 12 h, vehicle 43.51%): 49.30%; effect on the cell cycle (HCT116 cells [5]): arrested the cell cycle at the G2/M phase; ALC [1]: significantly reduced; ANC [1]: no significant alterations; PLT count [1]: no significant alterations; RBC [1]: no significant alterations; WBC [1]: significantly reduced; IC50 (p97 [2]; ref Chou et al., 2011, read-out: IC50 in the ATPase activity assays): < 10 µM; autophagosome formation in the cytoplasm [3]: induced accumulation; levels of the ER stress biomarker (ATF4) [3]: increased levels; IC50 (p97 ATPase): 0.657 µM; p97 concentration in the serum (p97 [6]): lowered |
